Legend:
Cx43 EL2 peptide = test: Surface Plasmon Resonance, Cx43 EL2 peptide; assay type: binding; conditions: synthetic full-length EL2 peptide, data not shown
[1] = tested on: LPS-induced Cx43 upregulation, macrophages; test: LPS-induced Cx43 upregulation in presence of P5; assay type: cell-based; conditions: macrophage cultures; data not shown
Procedure: (§1) The cellular levels of Cx43 and phosphor-PKR were determined by Western blotting analysis using an affinity-purified rabbit anti-Cx43 or anti-phospho-PKR (Thr^451) IgGs as previously described[9],[25],[53]. The levels of HMGB1 in the culture medium were determined by Western blotting analysis as described previously. The level of β-actin was used as a reference of total cellular proteins. Briefly, an equal volume of culture medium (conditioned by identical macrophage cell numbers) was harvested, and protein content was concentrated by ultrafiltration (with a molecular weight cutoff of 10.0 kDa), and then normalized to the same volume with a sample buffer. Proteins in equal sample volume were resolved on sodium dodecyl sulfate (SDS)-polyacrylamide gels, and transferred to polyvinylidene difluoride (PVDF) membranes. After blocking with 5% nonfat milk, the membrane was incubated with respective antibodies (anti-Cx43, 1:1000; anti-phospho-PKR, 1:1000; anti-HMGB1, 1:1,000; anti-β-actin. 1:5,000) overnight. Subsequently, the membrane was incubated with the appropriate secondary antibody, and the immunoreactive bands were visualized by chemiluminescence techniques.

[2] = tested on: TUNEL-positive cells, lungs of septic mice (CLP); test: TUNEL staining of septic lungs; assay type: in vivo, Balb/c mice; conditions: lungs at 24 h post CLP, at protective doses; 5–8 fields; P < 0.05 versus CLP
Description: (§2) This study was approved and performed in accordance with the guidelines of the Institutional Animal Care and Use Committee of the Feinstein Institute for Medical Research, Manhasset, New York, USA (Animal Protocol #2008-033, Approval date: September 10, 2014). To evaluate the effect of various Cx43 mimetic peptides on sepsis lethality, a clinically relevant animal model of sepsis induced by cecal ligation and puncture (CLP) was employed. Briefly, the cecum of Balb/c mice was ligated at about 5 mm from the cecal tip, and then punctured once with a 22-gauge needle. GAP26, TAT-GAP19 or P5 peptides were administered intraperitoneally into mice at indicated doses and time points, and animal survival rates were monitored for up to 2 wks. The Kaplan-Meier method was used to compare the differences in mortality rates between groups.
Upper and lower lobe lung tissues were collected at 24 h post CLP, fixed in 4% paraformaldehyde, embedded in paraffin, and cut into 5 µm thick sections. […] Five to eight fields of view were randomly selected for each tissue section, and the number of TUNEL-positive green cells was expressed as an average of percentage of total DAPI-positive blue cells.

[3] = tested on: Cx43 protein expression, NIH 3T3 fibroblasts; test: Cx43 protein expression, Western blotting, NIH 3T3 cells; assay type: cell-based; conditions: prolonged incubation, data not shown
Procedure: as §1

[4] = tested on: Balb/c mice, polymicrobial sepsis (CLP); test: CLP-induced sepsis survival; assay type: in vivo; conditions: P5 8.0 mg/kg
Description: as §2

Cx43 EL1 peptide = biological target: T1, Cx43 EL1 peptide (Homo sapiens, UniProt P17302); test: Surface Plasmon Resonance, Cx43 EL1 peptide; assay type: binding; conditions: synthetic full-length EL1 peptide, data not shown
T1 construct: synthetic full-length Cx43 EL1 or EL2 peptide as judged by the Surface Plasmon Resonance Analysis
T1 sequence (P17302 45-76 limits assumed): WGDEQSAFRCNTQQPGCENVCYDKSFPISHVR

[5] = tested on: cytokines and chemokines, RAW 264.7 cells; test: Cytokine antibody array; assay type: cell-based, murine; conditions: P5 10 μM, LPS 16 h, 62-cytokine antibody array
Procedure: Murine Cytokine Antibody Arrays (Cat. No. M0308003, RayBiotech Inc., Norcross, GA, USA), which respectively detect 62 cytokines on one membrane, were used to determine cytokine levels in macrophage-conditioned culture medium as previously described[51],[54]. Briefly, the membranes were sequentially incubated with equal volumes cell-conditioned culture medium (200 μl), primary biotin-conjugated antibodies, and horseradish peroxidase–conjugated streptavidin.

“ENVCYD [P5, cysteine-containing Cx43 EL1 mimetic hexamer peptide, P5 (ENVCYD)]” was tested, and the “binding to Cx43 EL2 peptide” value (Cx43 EL2 peptide) was “did not find evidence of P5 interacting”, the “LPS-induced Cx43 upregulation” value [1] was “did not affect the LPS-induced Cx43 upregulation” and the “TUNEL-positive cells in septic lungs” value [2] was “significantly reduced the number of TUNEL-positive cells in septic lungs”. The Cx43 protein expression [3] was “did not alter Cx43 protein expression”, the “animal survival rates (in words)” value ([4]; +2 h and +24 h after onset of sepsis, P < 0.05 versus CLP + Saline) was “significant increase in animal survival rates” and the animal survival ([4]; i.p., +2, +24 h post CLP, up to two weeks, saline 30%, P < 0.05, Kaplan-Meier) was 85%. The “binding to Cx43 EL1 peptide” value (Cx43 EL1 peptide) was “did not find evidence of P5 interacting” and the “other cytokines and chemokines” value [5] was “did not affect”.

Source: article PMC5760527, “Connexin 43 Hemichannel as a Novel Mediator of Sterile and Infectious Inflammatory Diseases” (Scientific Reports, 2018)
